Source: PubChem BioAssay (NCI)
Where “and” joins values, the source holds several entries; their conditions need not be identical. Equal values may be shown once.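 How tested: cells in 96-well plates exposed to compound for 48 hours at five concentrations. GI50 = concentration required for 50% inhibition of growth. At the TGI there is no net growth.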

Assays:
Test in all cases: NCI anticancer screen, dose series, 48 h
786-0 renal = system: 786-0 renal
DU-145 prostate = system: DU-145 prostate
HT29 colon = system: HT29 colon
NCI-H226 lung = system: NCI-H226 lung
NCI/ADR-RES ovarian = system: NCI/ADR-RES ovarian
OVCAR-4 ovarian = system: OVCAR-4 ovarian
OVCAR-5 ovarian = system: OVCAR-5 ovarian
SF-268 CNS = system: SF-268 CNS
SK-MEL-2 melanoma = system: SK-MEL-2 melanoma
UACC-257 melanoma = system: UACC-257 melanoma

Structure (SMILES)	GI50 (786-0 renal)	TGI (786-0 renal)	GI50 (DU-145 prostate)	TGI (DU-145 prostate)	GI50 (HT29 colon)	TGI (HT29 colon)	GI50 (NCI-H226 lung)	TGI (NCI-H226 lung)	GI50 (NCI/ADR-RES ovarian)	TGI (NCI/ADR-RES ovarian)	GI50 (OVCAR-4 ovarian)	TGI (OVCAR-4 ovarian) [µM]	GI50 (OVCAR-5 ovarian)	TGI (OVCAR-5 ovarian)	GI50 (SF-268 CNS)	TGI (SF-268 CNS)	GI50 (SK-MEL-2 melanoma)	TGI (SK-MEL-2 melanoma)	GI50 (UACC-257 melanoma) [µM]	TGI (UACC-257 melanoma) [µM]
Nc1nc(-c2ccc3c(c2)/C(=C\c2cc(Br)c(O)c(Br)c2)C(=O)N3)cs1	14.1 µM	> 25 µM	18.6 µM	> 25 µM	11.2 µM	> 25 µM	> 25 µM	> 25 µM	> 23.4 µM	> 25 µM	> 25 µM	> 25	> 25 µM	> 25 µM	16.3 µM	> 25 µM	6.96 µM	> 17.6 µM	5.57	14.4
CCC[CH2][Sn]1([CH2]CCC)[O]C(=O)c2cccc([N+](=O)[O-])c2C(=O)[O]1	0.724 µM	1.99 µM	0.795 µM	2.05 µM	1.31 µM	2.87 µM	0.331 µM	1.34 µM	1.53 µM	3.21 µM	0.465 µM	1.73	1.11 µM	2.49 µM	0.431 µM	1.65 µM	0.286 µM	0.825 µM	0.292	1.19
C[C@]12CCC(=O)C=C1C[C@@H](O)[C@@H]1[C@@H]2CC[C@@]2(C)[C@H]1CC[C@]2(C)O		> 100 µM		> 100 µM		> 100 µM		> 100 µM		> 100 µM		> 100		> 100 µM		> 100 µM		> 100 µM		> 100
CN(C(=O)C(C)(C)C)c1ccccc1I(=O)=O	> 100 µM	> 100 µM	> 100 µM	> 100 µM	> 100 µM	> 100 µM	> 100 µM	> 100 µM	> 100 µM	> 100 µM	> 100 µM	> 100	> 100 µM	> 100 µM	> 100 µM	> 100 µM	> 100 µM	> 100 µM	> 100	> 100
C=C1C(=O)O[C@@H]2/C=C(/C)[C@@H](OC(C)=O)C[C@@H](O)/C(C)=C\[C@@H](OC(=O)[C@]3(C)O[C@@H]3C)[C@@H]12		15.8 µM		28.1 µM		30.7 µM		> 100 µM		> 100 µM		45.8		32.6 µM		41.8 µM		33.9 µM		33.2
COC(=O)C1=C(C)NC(=S)NC1c1ccc(N(CCCl)CCCl)cc1Cl (centres undefined)		> 100 µM		> 81.1 µM		> 82.8 µM		> 45.7 µM		> 100 µM		> 84.1		> 100 µM		98.4 µM		> 85.9 µM		44.5
O=C1OC(OC/C(Br)=C(\Br)COC2OC(=O)C(Cl)=C2Cl)C(Cl)=C1Cl (centres undefined)		6.4 µM		28.5 µM		9.77 µM		40.8 µM		25.2 µM		19.3		30 µM		26.8 µM		35.9 µM		23.9
Oc1c(C(Nc2ccccn2)c2ccccc2)ccc2cccnc12 (centres undefined)		> 37.2 µM		> 100 µM		> 86.5 µM		7.54 µM		8.73 µM		31.9		> 100 µM		25.3 µM		> 28.4 µM		> 100
O=C1/C=C/[C@@H](O)[C@@H]2C[C@@H](O)C[C@H]2/C=C/CCC[C@H](CCO)O1	0.0362 µM	0.142 µM	0.426 µM	> 100 µM	0.0841 µM	1.31 µM	0.0684 µM	0.287 µM	0.176 µM		0.132 µM	> 100	0.396 µM	> 100 µM	0.0782 µM	> 73 µM	0.244 µM	0.734 µM	0.0609	> 100
COc1cc2ncnc(Oc3ccc(NC(=O)Nc4ccc(CN5CCOCC5)c(C(F)(F)F)c4)c4ccccc34)c2cc1OC	0.831 µM	6.74 µM	1.59 µM	12.4 µM	0.547 µM	10.3 µM	0.264 µM	16 µM	0.919 µM	21 µM	0.124 µM	8.69	1.15 µM	6.95 µM	0.453 µM	8.94 µM	1.61 µM	8.3 µM	0.964	4.12
CCC(=O)NC1=C(Cl)C(=O)C(NC(=O)CC)=C(Cl)C1=O	18.7 µM	33.4 µM	9.49 µM	22.3 µM	25.2 µM	53.3 µM	> 45.6 µM	> 62.1 µM	24 µM	58.6 µM	14.4 µM	29	20.6 µM	40.5 µM	19.7 µM	34.2 µM	20.6 µM	39.5 µM	14.8	28.3
CC(C)(C)NCC(O)c1ccccc1Cl (centres undefined)	> 100 µM	> 100 µM	> 100 µM	> 100 µM	> 100 µM	> 100 µM	> 100 µM	> 100 µM	> 100 µM	> 100 µM	> 100 µM	> 100	> 100 µM	> 100 µM	> 100 µM	> 100 µM	> 100 µM	> 100 µM	> 100	> 100
C[C@]12CC[C@H]3[C@@H](CC[C@]4(O)C[C@@H](O)CC[C@]34C=O)[C@@]1(O)CC[C@@H]2C1=CC(=O)OC1		> 100 µM		0.863 µM		2.03 µM		2.69 µM		1.92 µM		2.33		3.57 µM		2 µM		2.86 µM		2.5
OC(c1cc(C(F)(F)F)nc2c(Cl)cc(Cl)cc12)C1CCCCN1 (centres undefined)		> 38.1 µM		20 µM		> 38.9 µM		35.1 µM		30.2 µM		18.3		> 50.4 µM		> 40.7 µM		> 43.8 µM		> 38.8
COc1cc2c(cc1OCC(=O)Nc1ccc(Cl)cc1C(=O)c1ccccc1Cl)N=CC1CCCN1C2=O (centres undefined)	12.4 µM	26 µM	2.65 µM	8.56 µM	11.9 µM	34.2 µM	17.6 µM	34.3 µM	21.5 µM	64.8 µM	14.4 µM	32.9	24.6 µM	45.5 µM	12.9 µM	33 µM	7.4 µM	19.6 µM	16.6	30.2
O=C(Nc1ccc(Cl)c(Cl)c1)c1ccc(NC2=C(Cl)C(=O)N(Cc3ccccc3)C2=O)cc1	7.74 µM	20.1 µM	4.32 µM	16.6 µM	16.5 µM	> 100 µM	7.33 µM	20.8 µM	5.04 µM	17 µM	17.2 µM	42.1	2.95 µM	8.91 µM	8.26 µM	24 µM	10.1 µM	22.1 µM	3.67	11.9
CCN(CC)CCOc1nc2ccccc2c2c1-c1ccc(OC)cc1C2=O	1.17 µM	2.68 µM	0.505 µM	2.16 µM	0.334 µM	1.54 µM	0.935 µM	4.42 µM	0.807 µM	34.5 µM	1.36 µM	6.83	1.61 µM	7.51 µM	0.445 µM	2.05 µM	2.14 µM	4.36 µM	1.6	3.38
O=C1C2=C(C(=O)c3ccccc31)C(O)(S(=O)(=O)O)C(O)(S(=O)(=O)O)C1N=CC=CC21 (centres undefined)	5.03 µM and 4.29 µM	25 µM and 17.4 µM	6.09 µM and 5.9 µM	44 µM and 22.2 µM	5.84 µM and 4.51 µM	> 100 µM and 20.8 µM	9.22 µM and 11.9 µM	69.2 µM and 27.7 µM	2.45 µM and 1.27 µM	18.6 µM and 23.7 µM	3.66 µM and 2.99 µM	> 100	8.7 µM and 9.31 µM	> 100 µM and 45.7 µM	3.93 µM and 5.96 µM	41.4 µM and 32.1 µM	10.1 µM and 9.93 µM	70.3 µM and 33.1 µM	10.8	47.7
COc1ccc2c3ccnc(C(F)(F)F)c3n(CCCCN)c2c1	7.09 µM	19.4 µM	9.04 µM	21.2 µM	4.01 µM	15.8 µM	7.42 µM	30.5 µM	8.6 µM	28.1 µM	11.7 µM	25.5	8.62 µM	22.4 µM	6.62 µM	21.5 µM	16.8 µM	35.7 µM	3.02	8.41
COc1cc2[nH]c3c(c2cc1OC)CCN[C@@]31CC[C@@]2(CC3c4c(cc(OC)c(O)c42)CCN3C)C[C@@H]1OC (some centres undefined)		> 100 µM		> 100 µM		> 91.2 µM		> 100 µM		> 85.1 µM		> 100		> 100 µM		> 100 µM		40.6 µM		32.9
CCN1CCN(c2ccc(NC(=O)Nc3nc4ccc(-c5ccccc5OC)cc4s3)cc2)CC1	1.8 µM	3.28 µM	1.75 µM	3.26 µM	1.31 µM	2.7 µM	2.09 µM	4.52 µM	1.72 µM	3.35 µM	1.68 µM	3.31	1.8 µM	3.37 µM	1.87 µM	3.63 µM	1.94 µM	3.61 µM	2.11	3.79
Cn1nc(C(F)(F)F)cc1-c1cc(Cl)c(OCc2ccc(Cl)cc2)c(-c2ccc(Cl)c(C(F)(F)F)c2)c1O	1.07 µM	2.63 µM	1.76 µM	6.87 µM	1.4 µM	5.92 µM	1.36 µM	4.3 µM	1.35 µM	5.33 µM	1.66 µM	7.14	1.72 µM	7.4 µM	1.24 µM	5.47 µM	0.919 µM	2.34 µM	0.964	3.14
CC1=CC2(C)/C=C(C)/C=C\CC(O)/C=C3/C=CC(=C4C(=O)OC2(CC1C)C4=O)OC3 (centres undefined)	2.25 µM	4.94 µM	1.81 µM	3.59 µM	2.4 µM	> 26.4 µM	11.8 µM	47.9 µM	3.08 µM	12.2 µM	1.89 µM	4.91	2.93 µM	10.1 µM	2.09 µM	4.75 µM	2.61 µM	6.51 µM	1.82	4.36
Clc1ccc2c(NC3CCC(N4CCCCC4)CC3)ccnc2c1 (centres undefined)		41.7 µM		> 100 µM		40.7 µM		48.1 µM		> 100 µM		78.6		> 100 µM		> 100 µM		33.9 µM		29.4
CC1Cc2c(Cl)ncnc2N(C)c2ccccc21 (centres undefined)	3.23 µM	11.5 µM	4.45 µM	> 100 µM	2.47 µM	7.27 µM	2.05 µM	21.7 µM	2.69 µM	12.4 µM	3.02 µM	> 100	6.02 µM	> 100 µM	2.77 µM	91.6 µM	2.61 µM	6.1 µM	3.76	21
COc1cc(OC)c(/C=C/C(=O)c2c(OC)cc(OC)cc2OC)c(OC)c1	2.02 µM	> 74.7 µM	2.21 µM	8.51 µM	0.381 µM	2.1 µM	3.41 µM	> 100 µM	0.469 µM	10 µM	5.94 µM	> 100	2.8 µM	53 µM	1.84 µM	6.96 µM	0.984 µM	> 21.8 µM	3.58	> 100
CC(NNC(=S)N1CCN(c2ccccn2)CC1)c1nccc2ccccc12 (centres undefined)		13 µM		13.8 µM		19.1 µM		8.11 µM		12 µM		19.2		14.2 µM		14.5 µM		18.3 µM		12.9
CC(=O)OC1CC2(C)C(=CC1C1SCCS1)CCC1C2CCC2(C)C(OC(C)=O)CCC12 (centres undefined)		> 100 µM		> 100 µM		> 100 µM		> 100 µM		> 100 µM		> 100		> 100 µM		> 100 µM		> 100 µM		> 100
